This test deals with T1, TLR4 (Homo sapiens, UniProt O00206).
T1 construct: purchased Hölzel Diagnostik GmbH 10146-H08B-100; host or cells: baculovirus insect cells
Kind of test: Surface plasmon resonance spectroscopy (Biacore T200), TLR4 immobilized on NTA sensor chip via his-tag. The format is binding. To be noted: for Ka in 1/M / Kd: HBS-P+ with 50 μM EDTA, 20° C., 10 μL/min, 5 concentrations. The text has this:
The affinity of a ligand to its receptor describes the tendency thereof to enter into a bond with the receptor. The greater affinity, the greater the association constant Ka is. The strength of the receptor/ligand interaction can be determined experimentally with the aid of surface plasmon resonance spectroscopy (Biacore T200, GE Healthcare) and quantified by the so-called dissociation constant (Kd). Kd is thereby the reciprocal value of Ka, a thermodynamic value, which indicates which portion of the ligand is bound on average to the receptor protein and has the dimension of a concentration. The Biacore chip system is based on a glass slide with a gold film in a flow cell. TLR4 was immobilized on the NTA sensor chip via its his-tag in accordance with the manufacturer's protocol and the to-be-tested ligands, control compounds and LPS were passed over it dissolved in HBS-P+ with 50 μM EDTA at 20° C. with a flow rate of 10 μL/min in respectively 5 concentrations. The bond with TLR4 is measured as a change in the refractive index in the flow cell as compared to a reference cell as a response difference in RU. 1 RU corresponds thereby to 1 pg of bound ligand. After ligand injection, buffer is used for rinsing in order to ideally recreate the initial state, complete disassociation of the ligand.

These results are taken from patent US10613105B2, “Competitive immunoassay test system for detecting a pyrogen” (FRAUNHOFER-GESELLSCHAFT ZUR FORDERUNG DER ANGEWANDTEN …, priority 2014, dated 2020).

T1 sequence (O00206 24-631 limits assumed): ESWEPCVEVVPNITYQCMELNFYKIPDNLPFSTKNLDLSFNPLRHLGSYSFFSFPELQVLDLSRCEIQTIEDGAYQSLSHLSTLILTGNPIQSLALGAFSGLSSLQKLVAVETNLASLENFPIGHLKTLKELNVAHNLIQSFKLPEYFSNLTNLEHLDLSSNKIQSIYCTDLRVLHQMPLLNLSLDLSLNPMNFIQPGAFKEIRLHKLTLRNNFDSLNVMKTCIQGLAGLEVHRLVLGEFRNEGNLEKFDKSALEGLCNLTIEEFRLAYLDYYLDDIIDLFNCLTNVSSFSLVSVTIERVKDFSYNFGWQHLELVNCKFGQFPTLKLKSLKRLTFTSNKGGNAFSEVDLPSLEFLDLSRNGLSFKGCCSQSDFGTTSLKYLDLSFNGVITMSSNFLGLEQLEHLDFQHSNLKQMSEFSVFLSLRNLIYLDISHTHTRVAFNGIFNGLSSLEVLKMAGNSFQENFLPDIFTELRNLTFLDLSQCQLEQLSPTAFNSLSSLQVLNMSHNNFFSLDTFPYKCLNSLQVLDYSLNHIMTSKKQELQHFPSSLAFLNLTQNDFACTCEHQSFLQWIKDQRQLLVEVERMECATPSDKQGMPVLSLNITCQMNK

For the molecule `Cc1ccc(C(=O)N2CCOCC2)c(O)c1` [T5635346, (2-hydroxy-4-methylphenyl)-morpholin-4-ylmethanone], the “Ka in 1/M” value was 4,135,649 1/M and the affinity, expressed as Kd, was 242 nM. The “reduction of binding affinity for TLR4 by the TAMRA labeling” value (T5635346 with vs without TAMRA labeling) was determined as 40 fold.
On to `CC(C)CN1CCOC(CNC(=O)Nc2ccc3c(c2)OCO3)C1` (centres unmarked) [T5874283, 1-(1,3-benzodioxol-5-yl)-3-[[4-(2-methylpropyl)morpholin-2-yl]methyl]urea], for which the “Ka in 1/M” value is reported as 9,803,922 1/M and the affinity, expressed as Kd, was 102 nM.
